Experimental data published in US20250345295A1, “LMK235 COMPOSITIONS AND METHODS” (UNM Rainforest Innovations, priority 2024, published 2025).

Tested on: differentially expressed genes in TG
Experiment: RNAseq gene expression profiling of TG
Assay type: in vivo, mouse
Protocol: Gene expression profiling was performed on TG from mice with/without nerve injury during the acute phase (three weeks post injury) in TIC mice and after transition to chronic pain (10 weeks post injury) in FRICT-ION mice by Quick Biology Inc. (Monrovia, CA).
Total RNA from ipsilateral TG was isolated using the Rneasy Mini Kit (Qiagen, Valencia, CA). Gene expression profiling and analysis with RNA was done by Quick Biology Inc. (Monrovia, CA). RNAseq library preparation was performed by Quick Biology Inc. (Monrovia, CA), sequencing was performed using an Illumina HiSeq 4000 at 40 million reads per sample. The reads were first mapped to the latest UCSC transcript set using Bowtie2 version 2.1.0 and the gene expression level was estimated using RSEM v1.2.15. Differentially expressed genes were identified using the edgeR program. Genes showing altered expression with p<0.05 were considered differentially expressed.

[1] = LMK235-Treated FRICT-ION Vs Naive
[2] = LMK235-Treated FRICT-ION Vs Untreated FRICT-ION
[3] = TG RNAseq, FRICT-ION mice treated with LMK235 vs naive, week 10
[4] = TG RNAseq, LMK235-treated vs untreated FRICT-ION mice

Compound: Cc1cc(C)cc(C(=O)NOCCCCCC(=O)NO)c1 [LMK235, N-[[6-(Hydroxyamino)-6-oxohexyl]oxy]-3,5-dimethyl-benzamide]
- Fold-change Arfgef2 [1]: 1.02
- Fold-change Astn2 [1]: 1.04
- Fold-change Bmp2 [1]: 1.11
- Fold-change Bmp3 [1]: −1.23
- Fold-change Bmp4 [1]: 1.18
- Fold-change Bmp5 [1]: 1.85
- Fold-change Cacna1a [1]: −1.06
- Fold-change Cacna1g [1]: −1.00
- Fold-change Cacna1i [1]: −1.14
- Fold-change Cacna1h [1]: −1.11
- Fold-change Cacna1d [1]: −1.03
- Fold-change Cacnb1 [1]: −1.02
- Fold-change Clcn1 [1]: −1.33
- Fold-change Clcn2 [1]: −1.11
- Fold-change Clic5 [1]: −1.08
- Fold-change Eef2 [1]: −1.05
- Fold-change Gabra5 [1]: 1.02
- Fold-change Gabra6 [1]: 1.18
- Fold-change Gabre [1]: −1.22
- Fold-change Gabrg1 [1]: 1.26
- Fold-change Jakmip1 [1]: 1.02
- Fold-change Kcna5 [1]: −1.06
- Fold-change Kcnc3 [1]: −1.05
- Fold-change Kcnd2 [1]: 1.09
- Fold-change Kcnh2 [1]: −1.06
- Fold-change Kcnh7 [1]: 1.03
- Fold-change Kcnj6 [1]: −1.10
- Fold-change Kcnk1 [1]: −1.02
- Fold-change Kcns2 [1]: 1.12
- Fold-change Kcnv1 [1]: 1.26
- Fold-change Kif1b [1]: 1.01
- Fold-change Maoa [1]: 1.08
- Fold-change Mapk3 [1]: −1.02
- Fold-change Mpz [1]: 1.07
- Fold-change Nacc2 [1]: −1.05
- Fold-change Nav3 [1]: 1.12
- Fold-change Ncald [1]: 1.05
- Fold-change Ndnf [1]: 1.31
- Fold-change Net1 [1]: −1.11
- Fold-change Neurod4 [1]: −1.13
- Fold-change Nf2 [1]: −1.02
- Fold-change Nfasc [1]: −1.09
- Fold-change Ngef [1]: −1.06
- Fold-change Nkain2 [1]: 1.05
- Fold-change Nova1 [1]: 1.04
- Fold-change Nras [1]: −1.00
- Fold-change Nrep [1]: 1.04
- Fold-change Nrg2 [1]: 1.04
- Fold-change Nrg3 [1]: 1.09
- Fold-change Nrp2 [1]: 1.07
- Fold-change Ntrk1 [1]: −1.09
- Fold-change Nts [1]: 1.18
- Fold-change Plcl1 [1]: 1.12
- Fold-change Scn2a1 [1]: 1.10
- Fold-change Scn3a [1]: 1.11
- Fold-change Scn5a [1]: 1.23
- Fold-change Scn7a [1]: 1.07
- Fold-change Scn8a [1]: −1.07
- Fold-change Scn9a [1]: 1.01
- Fold-change Slc6a4 [1]: −1.11
- Fold-change Trak1 [1]: −1.05
- Fold-change Trpc6 [1]: −1.08
- Fold-change Trpm2 [1]: −1.10
- Fold-change Trpm3 [1]: 1.12
- Fold-change Trpm4 [1]: −1.14
- Fold-change Trpm7 [1]: 1.10
- Fold-change Trps1 [1]: 1.14
- Fold-change Trpv4 [1]: 2.12
- Fold-change Trpv6 [1]: −1.07
- Fold-change Unc80 [1]: 1.07
- Fold-change Arfgef2 [2]: 1.01
- Fold-change Astn2 [2]: 1.0
- Fold-change Bmp2 [2]: −1.02
- Fold-change Bmp3 [2]: −2.70
- Fold-change Bmp4 [2]: 1.05
- Fold-change Bmp5 [2]: −1.01
- Fold-change Cacna1a [2]: −1.16
- Fold-change Cacna1g [2]: −1.43
- Fold-change Cacna1i [2]: −1.39
- Fold-change Cacna1h [2]: −1.49
- Fold-change Cacna1d [2]: −1.04
- Fold-change Cacnb1 [2]: −1.13
- Fold-change Clcn1 [2]: −1.05
- Fold-change Clcn2 [2]: 1.01
- Fold-change Clic5 [2]: −1.05
- Fold-change Eef2 [2]: 1.01
- Fold-change Gabra5 [2]: −1.23
- Fold-change Gabra6 [2]: 2.08
- Fold-change Gabre [2]: 1.10
- Fold-change Gabrg1 [2]: 1.14
- Fold-change Jakmip1 [2]: −1.10
- Fold-change Kcna5 [2]: −1.41
- Fold-change Kcnc3 [2]: −1.04
- Fold-change Kcnd2 [2]: −1.00
- Fold-change Kcnh2 [2]: −1.04
- Fold-change Kcnh7 [2]: −1.19
- Fold-change Kcnj6 [2]: −1.38
- Fold-change Kcnk1 [2]: 1.05
- Fold-change Kcns2 [2]: −1.25
- Fold-change Kcnv1 [2]: 1.09
- Fold-change Kif1b [2]: 1.01
- Fold-change Maoa [2]: 1.14
- Fold-change Mapk3 [2]: −1.00
- Fold-change Mpz [2]: −1.05
- Fold-change Nacc2 [2]: −1.00
- Fold-change Nav3 [2]: −1.19
- Fold-change Ncald [2]: 1.03
- Fold-change Ndnf [2]: 1.06
- Fold-change Net1 [2]: 1.12
- Fold-change Neurod4 [2]: 1.57
- Fold-change Nf2 [2]: 1.04
- Fold-change Nfasc [2]: −1.02
- Fold-change Ngef [2]: −1.34
- Fold-change Nkain2 [2]: −1.14
- Fold-change Nova1 [2]: 1.04
- Fold-change Nras [2]: −1.03
- Fold-change Nrep [2]: 1.01
- Fold-change Nrg2 [2]: 1.10
- Fold-change Nrg3 [2]: −1.00
- Fold-change Nrp2 [2]: 1.07
- Fold-change Ntrk1 [2]: 1.80
- Fold-change Nts [2]: −1.74
- Fold-change Plcl1 [2]: 1.13
- Fold-change Scn2a1 [2]: −1.04
- Fold-change Scn3a [2]: −1.01
- Fold-change Scn5a [2]: 1.01
- Fold-change Scn7a [2]: −1.07
- Fold-change Scn8a [2]: 1.05
- Fold-change Scn9a [2]: 1.29
- Fold-change Slc6a4 [2]: 4.38
- Fold-change Trak1 [2]: −1.01
- Fold-change Trpc6 [2]: 1.08
- Fold-change Trpm2 [2]: −1.02
- Fold-change Trpm3 [2]: 1.19
- Fold-change Trpm4 [2]: 1.05
- Fold-change Trpm7 [2]: 1.06
- Fold-change Trps1 [2]: 1.03
- Fold-change Trpv4 [2]: 1.21
- Fold-change Trpv6 [2]: −1.19
- Fold-change Unc80 [2]: 1.10
- Fold change S100a9 (TG RNAseq, FRICT-ION + LMK235 VS FRICT-ION): −2.74
- C1q14 RNA level vs naïve [3]: not significantly different from naïve mice
- Crhbp RNA level vs naïve [3]: not significantly different form naïve controls
- P2rx4 RNA level vs naïve [3]: not different from naïves
- Slfn4 RNA level vs naïve [3]: not different from naïve controls
- P2rx7 foldchanges (TG RNAseq, LMK235-treated and untreated FRICT-ION mice): minimal and insignificant foldchanges
- Bmp2 downregulated, fold [4]: 1.02 fold
- Bmp3 downregulated, fold [4]: 2.70 fold
- Bmp4 expression change [4]: not affected
- Bmp5 downregulated, fold [4]: 1.01 fold
- Cacna1a downregulated, fold [4]: 1.16 fold
- Cacna1 downregulated, fold [4]: 1.39 fold
- Cacna1g downregulated, fold [4]: 1.43 fold
- Cacna1h downregulated, fold [4]: 1.49 fold
- Cacna1d downregulated, fold [4]: 1.04 fold
- CacnbI downregulated, fold [4]: 1.13 fold
- Clcn2 upregulated, fold [4]: 1.01 fold
- Kcna5 downregulated, fold [4]: 1.41 fold
- Kcnd2 downregulated, fold [4]: 1.00 fold
- Kcne2 reduced, fold (insignificant) [4]: 1.56 fold
- Kcnh7 downregulated, fold [4]: 1.19 fold
- Kcnj6 downregulated, fold [4]: 1.38 fold
- Kcnk1 upregulated, fold [4]: 1.05 fold
- Kcns2 downregulated, fold [4]: 1.25 fold
- Maoa upregulated, fold [4]: 1.14 fold
- Mpz downregulated, fold [4]: 1.05 fold
